From US10059688B2, “Protein tyrosine kinase modulators and methods of use” (BETTA PHARMACEUTICALS CO., LTD., priority 2013, dated 2018) come the findings set out here.

pIC50: −log10 of the molar value. A value given as a limit tells only on which side of the number the result lay.

What is called pIC50 is −log10 of the IC50, conventionally taken in molar units. High values mean a small IC50, low ones a large IC50. In general, remaining activity refers to the signal under treatment as a percentage of the control signal.

In one test the target is EGFR (h) (Homo sapiens (Human), UniProt P00533). Description: Kinase assay, single dose inhibition (Millipore, 33P-ATP filter binding). The test is classed as biochemical. As to conditions: 0.1 μM test compound, 10 μM ATP; remaining activity relative to DMSO control = 100%.
The next test addresses EGFR (T790M) (h) (Homo sapiens (Human), UniProt P00533, T790M). Described as above. The test is classed as biochemical. As to conditions: 0.1 μM test compound, 10 μM ATP; remaining activity relative to DMSO control = 100%.
In another test the target is EGFR (T790M, L858R) (h) (Homo sapiens (Human), UniProt P00533, L858R/T790M). The test is described as above. The test is classed as biochemical. As to conditions: 0.1 μM test compound, 10 μM ATP; remaining activity relative to DMSO control = 100%.
For the next test, the target named is EGFR (L858R) (h) (Homo sapiens (Human), UniProt P00533, L858R). The description is as above. The test is classed as biochemical. As to conditions: 0.1 μM test compound, 10 μM ATP; remaining activity relative to DMSO control = 100%.
Test [1] has as its system H1975 (EGFR L858R/T790M) NSCLC cells. Description: Cell proliferation assay (MTS cell viability). The test is classed as cell-based. As to conditions: Homo sapiens, NCI-H1975, 72 h; H1975 cells, 3 days of exposure, MTS.
Test [2] concerns HCC827 (EGFR Del) NSCLC cells. The experiment in a line: Cell proliferation assay (MTS cell viability). The test is classed as cell-based. As to conditions: Homo sapiens, 72 h; HCC827 cells, 3 days of exposure, MTS.
A further test deals with ALK (h) (Homo sapiens (Human), UniProt Q9UM73). Description: Kinase assay, single dose inhibition (Millipore, 33P-ATP filter binding). As to conditions: 0.1 μM test compound, 10 μM ATP, remaining activity relative to DMSO control = 100%. The test is classed as biochemical.
ALK (h), sequence (Q9UM73 19-1620): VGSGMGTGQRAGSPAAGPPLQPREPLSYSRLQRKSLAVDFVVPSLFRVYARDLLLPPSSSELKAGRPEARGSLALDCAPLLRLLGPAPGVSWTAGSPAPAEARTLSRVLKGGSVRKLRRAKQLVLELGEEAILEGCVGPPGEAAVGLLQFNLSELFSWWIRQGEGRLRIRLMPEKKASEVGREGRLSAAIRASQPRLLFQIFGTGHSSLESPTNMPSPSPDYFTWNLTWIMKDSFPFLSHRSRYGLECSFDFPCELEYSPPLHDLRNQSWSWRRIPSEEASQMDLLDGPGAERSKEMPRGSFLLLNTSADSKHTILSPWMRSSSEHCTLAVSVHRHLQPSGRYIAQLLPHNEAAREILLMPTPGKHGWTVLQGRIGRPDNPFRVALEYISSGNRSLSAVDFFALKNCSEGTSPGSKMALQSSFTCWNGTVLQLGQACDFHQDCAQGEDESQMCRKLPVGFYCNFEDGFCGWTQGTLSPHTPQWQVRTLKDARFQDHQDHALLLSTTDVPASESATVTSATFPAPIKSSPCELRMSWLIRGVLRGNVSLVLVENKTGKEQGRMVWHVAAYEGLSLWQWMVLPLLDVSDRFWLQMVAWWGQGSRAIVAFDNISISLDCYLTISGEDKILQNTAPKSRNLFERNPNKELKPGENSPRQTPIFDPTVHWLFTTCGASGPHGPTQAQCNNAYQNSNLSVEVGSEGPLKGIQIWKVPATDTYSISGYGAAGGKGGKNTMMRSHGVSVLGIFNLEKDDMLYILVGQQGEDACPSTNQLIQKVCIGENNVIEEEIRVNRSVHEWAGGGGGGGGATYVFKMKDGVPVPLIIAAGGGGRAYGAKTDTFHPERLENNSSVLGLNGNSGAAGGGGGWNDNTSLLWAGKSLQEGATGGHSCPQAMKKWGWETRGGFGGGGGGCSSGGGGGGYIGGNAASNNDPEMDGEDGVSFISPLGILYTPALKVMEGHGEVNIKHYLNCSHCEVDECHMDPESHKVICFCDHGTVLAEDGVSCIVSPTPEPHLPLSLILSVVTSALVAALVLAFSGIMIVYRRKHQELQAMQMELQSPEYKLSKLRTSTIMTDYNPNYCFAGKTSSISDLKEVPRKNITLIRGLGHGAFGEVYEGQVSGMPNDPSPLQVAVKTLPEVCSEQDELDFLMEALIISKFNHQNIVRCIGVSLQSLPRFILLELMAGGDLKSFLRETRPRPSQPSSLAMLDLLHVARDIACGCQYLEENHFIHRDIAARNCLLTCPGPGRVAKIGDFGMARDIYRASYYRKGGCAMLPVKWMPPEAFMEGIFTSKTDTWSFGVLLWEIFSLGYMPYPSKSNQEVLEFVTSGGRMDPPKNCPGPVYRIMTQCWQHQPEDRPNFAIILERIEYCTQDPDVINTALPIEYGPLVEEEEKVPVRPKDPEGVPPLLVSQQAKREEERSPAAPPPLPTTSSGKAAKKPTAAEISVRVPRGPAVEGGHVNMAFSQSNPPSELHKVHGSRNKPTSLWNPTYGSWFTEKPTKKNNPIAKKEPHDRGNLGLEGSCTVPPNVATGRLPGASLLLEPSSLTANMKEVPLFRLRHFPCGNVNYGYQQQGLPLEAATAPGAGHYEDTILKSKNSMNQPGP

EGFR (T790M, L858R) (h), sequence (P00533 25-1210 T790M/L858R): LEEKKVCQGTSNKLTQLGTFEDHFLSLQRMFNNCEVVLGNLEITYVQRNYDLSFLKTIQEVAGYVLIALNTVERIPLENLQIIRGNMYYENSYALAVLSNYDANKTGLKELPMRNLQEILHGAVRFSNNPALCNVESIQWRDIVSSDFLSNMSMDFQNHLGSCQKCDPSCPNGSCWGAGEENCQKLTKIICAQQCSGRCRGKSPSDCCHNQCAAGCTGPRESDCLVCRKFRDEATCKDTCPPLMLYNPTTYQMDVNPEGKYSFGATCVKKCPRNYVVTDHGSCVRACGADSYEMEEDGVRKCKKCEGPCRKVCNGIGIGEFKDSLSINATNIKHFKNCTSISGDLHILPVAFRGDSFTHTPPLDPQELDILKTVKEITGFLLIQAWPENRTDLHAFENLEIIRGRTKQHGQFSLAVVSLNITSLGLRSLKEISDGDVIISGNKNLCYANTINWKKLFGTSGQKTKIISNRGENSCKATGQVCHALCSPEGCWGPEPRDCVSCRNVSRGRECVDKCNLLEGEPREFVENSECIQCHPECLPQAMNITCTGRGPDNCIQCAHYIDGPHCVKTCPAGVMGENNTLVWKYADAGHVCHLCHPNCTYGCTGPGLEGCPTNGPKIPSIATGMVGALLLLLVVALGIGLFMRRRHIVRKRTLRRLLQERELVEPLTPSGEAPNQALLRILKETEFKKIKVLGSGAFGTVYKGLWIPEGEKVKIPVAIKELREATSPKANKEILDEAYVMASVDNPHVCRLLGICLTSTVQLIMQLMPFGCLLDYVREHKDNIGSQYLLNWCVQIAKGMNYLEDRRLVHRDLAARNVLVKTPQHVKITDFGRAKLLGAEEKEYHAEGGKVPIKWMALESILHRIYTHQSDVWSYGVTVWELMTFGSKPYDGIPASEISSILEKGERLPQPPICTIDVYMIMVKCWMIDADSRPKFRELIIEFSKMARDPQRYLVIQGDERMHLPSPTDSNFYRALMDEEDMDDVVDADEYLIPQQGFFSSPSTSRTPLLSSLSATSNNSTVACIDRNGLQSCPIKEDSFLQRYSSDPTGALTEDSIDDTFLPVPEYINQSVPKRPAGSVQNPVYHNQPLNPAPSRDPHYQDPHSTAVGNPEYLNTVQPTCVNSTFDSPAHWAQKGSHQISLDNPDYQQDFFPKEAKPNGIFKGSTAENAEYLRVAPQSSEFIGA
EGFR (h), sequence (P00533 25-1210): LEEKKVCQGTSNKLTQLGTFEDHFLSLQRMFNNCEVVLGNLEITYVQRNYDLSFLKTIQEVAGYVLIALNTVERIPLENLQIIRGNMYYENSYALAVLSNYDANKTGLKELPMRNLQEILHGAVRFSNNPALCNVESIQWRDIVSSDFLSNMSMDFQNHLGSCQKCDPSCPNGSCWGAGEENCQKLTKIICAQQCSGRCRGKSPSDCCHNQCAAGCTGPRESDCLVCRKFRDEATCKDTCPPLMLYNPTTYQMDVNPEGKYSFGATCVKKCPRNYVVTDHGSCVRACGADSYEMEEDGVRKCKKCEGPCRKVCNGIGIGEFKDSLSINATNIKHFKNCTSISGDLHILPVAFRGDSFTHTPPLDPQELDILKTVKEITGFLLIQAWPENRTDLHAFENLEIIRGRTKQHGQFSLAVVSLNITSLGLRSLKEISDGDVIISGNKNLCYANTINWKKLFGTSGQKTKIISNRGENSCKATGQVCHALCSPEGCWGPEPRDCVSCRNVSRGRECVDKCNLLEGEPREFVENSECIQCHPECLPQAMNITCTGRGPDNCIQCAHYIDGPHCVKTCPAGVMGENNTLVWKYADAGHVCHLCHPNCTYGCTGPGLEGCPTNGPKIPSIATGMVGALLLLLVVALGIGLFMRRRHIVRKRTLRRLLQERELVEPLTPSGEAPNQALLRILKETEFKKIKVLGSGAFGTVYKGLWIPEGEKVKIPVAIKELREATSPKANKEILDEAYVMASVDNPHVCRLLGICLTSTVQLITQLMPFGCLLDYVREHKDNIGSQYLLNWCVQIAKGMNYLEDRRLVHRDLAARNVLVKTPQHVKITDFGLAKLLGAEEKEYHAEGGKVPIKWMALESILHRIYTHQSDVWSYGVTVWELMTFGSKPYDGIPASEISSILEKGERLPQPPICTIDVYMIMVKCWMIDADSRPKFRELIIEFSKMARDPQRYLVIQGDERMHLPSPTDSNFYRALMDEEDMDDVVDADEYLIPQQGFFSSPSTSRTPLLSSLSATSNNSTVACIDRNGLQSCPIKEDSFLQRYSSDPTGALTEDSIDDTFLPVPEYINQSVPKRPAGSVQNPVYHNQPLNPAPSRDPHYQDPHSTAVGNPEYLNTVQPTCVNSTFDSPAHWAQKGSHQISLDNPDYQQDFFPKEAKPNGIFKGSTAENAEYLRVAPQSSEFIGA

`C=CC(=O)Nc1cccc(Nc2nc(Nc3ccc(N4CCN(C(C)=O)CC4)cc3OC)ncc2C(F)(F)F)c1` [CO-1686, reference compound]: on EGFR (h), the “Activity (control) % EGFR (h)” value is 92%. In addition, the “Activity (control) % EGFR (T790M) (h)” value at EGFR (T790M) (h) came out at 21%. Besides, the “Activity (control) % EGFR (T790M, L858R) (h)” value at EGFR (T790M, L858R) (h) stood at 7%. Moreover, the “Activity (control) % EGFR (L858R) (h)” value on EGFR (L858R) (h) is on record as 97%.
Regarding `CCOC(=O)C(=O)c1ccccc1Nc1nc(Nc2ccc(N3CCC(N(C)C)CC3)cc2OC)ncc1Cl` [Example 1, ethyl 2-(2-(5-chloro-2-(4-(4-(dimethylamino)piperidin-1-yl)-2-methoxyphenylamino)pyrimidin-4-ylamino)phenyl)-2-oxoacetate], the pIC50 in test [1] and in test [2] was < 5.52 throughout.
As for `COc1cc(N2CCC(N(C)C)CC2)ccc1Nc1ncc(Cl)c(Nc2ccccc2C(=O)C(=O)O)n1` [Example 2, 2-(2-(5-chloro-2-(4-(4-(dimethylamino)piperidin-1-yl)-2-methoxyphenylamino)pyrimidin-4-ylamino)phenyl)-2-oxoacetic acid], the pIC50 in test [1] and in test [2] was < 5.52 each time.
Consider `COc1cc(N2CCN(C)CC2)ccc1Nc1ncc(C(F)(F)F)c(Nc2ccccc2C(=O)C(N)=O)n1` [Example 10, 2-(2-((2-((2-methoxy-4-(4-methylpiperazin-1-yl)phenyl)amino)-5-(trifluoromethyl)pyrimidin-4-yl)amino)phenyl)-2-oxoacetamide], for which the pIC50 in test [1] and in test [2] was < 5.52 in each case.
`COc1cc(N2CCC(N(C)C)CC2)ccc1Nc1ncc(C(F)(F)F)c(Nc2ccccc2C(=O)C(=O)O)n1` [Example 15, 2-(2-((2-((4-(4-(dimethylamino)piperidin-1-yl)-2-methoxyphenyl)amino)-5-(trifluoromethyl)pyrimidin-4-yl)amino)phenyl)-2-oxoacetic acid]: the negative logarithm of the IC50 (pIC50) in test [1] and in test [2] was < 5.52 in each case.
In the case of `COc1cc(N2CCC(N(C)C)CC2)ccc1Nc1ncc(Cl)c(Nc2ccccc2C(=O)C(=O)N2CCOCC2)n1` [Example 18, 1-(2-((5-chloro-2-((4-(4-(dimethylamino)piperidin-1-yl)-2-methoxyphenyl)amino)pyrimidin-4-yl)amino)phenyl)-2-morpholinoethane-1,2-dione], the pIC50 in test [1] was 5.54; in test [2] it was < 5.52.
In the same order, the values of `COc1cc(N2CCC(N(C)C)CC2)ccc1Nc1ncc(Cl)c(Nc2ccccc2C(=O)C(=O)NC2CNC2)n1` [Example 24, N-(azetidin-3-yl)-2-(2-((5-chloro-2-((4-(4-(dimethylamino)piperidin-1-yl)-2-methoxyphenyl)amino)pyrimidin-4-yl)amino)phenyl)-2-oxoacetamide] are < 5.52 and < 5.52.
Taken in the same sequence, the figures for `COc1cc(N2CCC(N(C)C)CC2)ccc1Nc1ncc(Cl)c(Nc2ccccc2C(=O)C(=O)NC2CC2)n1` [Example 25, 2-(2-((5-chloro-2-((4-(4-(dimethylamino)piperidin-1-yl)-2-methoxyphenyl)amino)pyrimidin-4-yl)amino)phenyl)-N-cyclopropyl-2-oxoacetamide] were < 5.52 and < 5.52.
Regarding `C=C(CN1CCOCC1)C(=O)Nc1ccc(OC)c(Nc2ncc(Cl)c(Nc3ccccc3C(=O)C(=O)N(C)C)n2)c1` [Example 41, N-(3-(5-chloro-4-(2-(2-(dimethylamino)-2-oxoacetyl)phenylamino)pyrimidin-2-ylamino)-4-methoxyphenyl)-2-(morpholinomethyl)acrylamide], the remaining activity at 0.1 µM at ALK (h) (40 min) was 21%. Moreover, on EGFR (h), the “Activity (control) % EGFR (h)” value is 76%. The “Activity (control) % EGFR (T790M) (h)” value on EGFR (T790M) (h) is 2%. In addition, on EGFR (T790M, L858R) (h), the “Activity (control) % EGFR (T790M, L858R) (h)” value was 3%. The “Activity (control) % EGFR (L858R) (h)” value on EGFR (L858R) (h) amounted to 39%.
For the compound `COc1cc(N2CCOCC2)ccc1Nc1ncc(Cl)c(Nc2ccccc2C(=O)C(=O)N(C)C)n1` [Example 48, 2-(2-(5-chloro-2-(2-methoxy-4-morpholinophenylamino)pyrimidin-4-ylamino)phenyl)-N,N-dimethyl-2-oxoacetamide], the pIC50 in test [1] and in test [2] was 5.71 in each case.
As to `COc1cc(N2CCN(C)CC2)ccc1Nc1ncc(Cl)c(Nc2ccccc2C(=O)C(=O)NC2CC2)n1` [Example 49, 2-(2-(5-chloro-2-(2-methoxy-4-(4-methylpiperazin-1-yl)phenylamino)pyrimidin-4-ylamino)phenyl)-N-cyclopropyl-2-oxoacetamide], the pIC50 in test [1] and in test [2] was < 5.52 throughout.
Consider `CCC(=O)N1CCN(c2ccc(Nc3ncc(Cl)c(Nc4ccccc4C(=O)C(=O)NC)n3)c(OC)c2)CC1` [Example 54, 2-(2-(5-chloro-2-(2-methoxy-4-(4-propionylpiperazin-1-yl)phenylamino)pyrimidin-4-ylamino)phenyl)-N-methyl-2-oxoacetamide], for which the pIC50 in test [1] and in test [2] was < 5.52 in each case.
In the case of `C=CC(=O)N1CC(NC(=O)C(=O)c2ccccc2Nc2nc(Nc3ccc(N4CCN(C)CC4)cc3OC)ncc2Cl)C1` [Example 55, N-(1-acryloylazetidin-3-yl)-2-(2-(5-chloro-2-(2-methoxy-4-(4-methylpiperazin-1-yl)phenylamino)pyrimidin-4-ylamino)phenyl)-2-oxoacetamide], the negative-log IC50 (pIC50) in test [1] and in test [2] was < 5.52 throughout.
Regarding `C=CC(=O)N1CCC(NC(=O)C(=O)c2ccccc2Nc2nc(Nc3ccc(N4CCN(C)CC4)cc3OC)ncc2Cl)CC1` [Example 56, N-(1-acryloylpiperidin-4-yl)-2-(2-(5-chloro-2-(2-methoxy-4-(4-methylpiperazin-1-yl)phenylamino)pyrimidin-4-ylamino)phenyl)-2-oxoacetamide], the pIC50 in test [1] and in test [2] was < 5.52 in each case.
In test [1], `COc1ccc(NC(=O)C=C(C)C)cc1Nc1ncc(Cl)c(Nc2ccccc2C(=O)C(=O)N(C)C)n1` [Example 71, N-(3-(5-chloro-4-(2-(2-(dimethylamino)-2-oxoacetyl)phenylamino)pyrimidin-2-ylamino)-4-methoxyphenyl)-3-methylbut-2-enamide] gave a pIC50 of 6.00.
As for `COc1ccc(NC(=O)/C=C/CN2CCCCC2)cc1Nc1ncc(Cl)c(Nc2ccccc2C(=O)C(=O)N(C)C)n1` [Example 72, (E)-N-(3-(5-chloro-4-(2-(2-(dimethylamino)-2-oxoacetyl)phenylamino)pyrimidin-2-ylamino)-4-methoxyphenyl)-4-(piperidin-1-yl)but-2-enamide], the “Activity (control) % ALK (h)” value on ALK (h) was found to be 14%. Moreover, on EGFR (h), the “Activity (control) % EGFR (h)” value turned out to be 102%. In addition, at EGFR (T790M) (h), the “Activity (control) % EGFR (T790M) (h)” value came to 54%. Further, the “Activity (control) % EGFR (T790M, L858R) (h)” value on EGFR (T790M, L858R) (h) stood at 9%. Besides, the “Activity (control) % EGFR (L858R) (h)” value at EGFR (L858R) (h) is 28%.
In the same order, the values of `C=C(CN1CCCCC1)C(=O)Nc1ccc(OC)c(Nc2ncc(Cl)c(Nc3ccccc3C(=O)C(=O)N(C)C)n2)c1` [Example 73, N-(3-(5-chloro-4-(2-(2-(dimethylamino)-2-oxoactyl)phenylamino)pyrimidin-2-ylamino)-4-methoxyphenyl)-2-(piperidin-1-ylmethyl)acrylamide] are 17%, 67%, 3%, 3% and 37%.
Take `C=C(CN(C)C)C(=O)Nc1ccc(OC)c(Nc2ncc(Cl)c(Nc3ccccc3C(=O)C(=O)N(C)C)n2)c1` [Example 78, N-(3-(5-chloro-4-(2-(2-(dimethylamino)-2-oxoactyl)phenylamino)pyrimidin-2-ylamino)-4-methoxyphenyl)-2-((dimethylamino)methyl)acrylamide]: on ALK (h), the “Activity (control) % ALK (h)” value turned out to be 36%. Also, the “Activity (control) % EGFR (h)” value on EGFR (h) is on record as 68%. Further, the “Activity (control) % EGFR (T790M) (h)” value at EGFR (T790M) (h) is listed as 2%. Further, the “Activity (control) % EGFR (T790M, L858R) (h)” value on EGFR (T790M, L858R) (h) is recorded as 3%. Also, on EGFR (L858R) (h), the “Activity (control) % EGFR (L858R) (h)” value is listed as 37%.
For the compound `COc1ccc(NC(=O)/C=C/CN2CCOCC2)cc1Nc1ncc(Cl)c(Nc2ccccc2C(=O)C(=O)N(C)C)n1` [Example 79, (E)-N-(3-(5-chloro-4-(2-(2-(dimethylamino)-2-oxoacetyl)phenylamino)pyrimidin-2-ylamino)-4-methoxyphenyl)-4-morpholinobut-2-enamide], the “Activity (control) % ALK (h)” value at ALK (h) worked out at 7%. The “Activity (control) % EGFR (h)” value at EGFR (h) is 92%. Besides, the “Activity (control) % EGFR (T790M) (h)” value at EGFR (T790M) (h) turned out to be 16%. Besides, the “Activity (control) % EGFR (T790M, L858R) (h)” value on EGFR (T790M, L858R) (h) was determined as 2%. In addition, the “Activity (control) % EGFR (L858R) (h)” value at EGFR (L858R) (h) is on record as 25%.
As for `C=CC(=O)N1CCOc2ccc(Nc3ncc(Cl)c(Nc4ccccc4C(=O)C(=O)N(C)C)n3)cc21` [Example 87, 2-(2-(2-(4-acryloyl-3,4-dihydro-2H-benzo[b][1,4]oxazin-6-ylamino)-5-chloropyrimidin-4-ylamino)phenyl)-N,N-dimethyl-2-oxoacetamide], the “Activity (control) % ALK (h)” value on ALK (h) was determined as 5%.
The same measure, in the same setting: for “N-(5-(5-chloro-4-(2-(2-(dimethylamino)-2-oxoactyl)phenylamino)pyrimidin-2-ylamino)-2-(2-(dimethylamino)ethoxy)phenyl)acrylamide [Example 115]” the value was 6%.
